Read-outs that look alike come from different tables or passages of the source.
Experiments:
[1] = molecular target: T1, type PN SadP-D282(31-328) (Streptococcus suis, UniProt G5DSS1); conditions: PBS, 25 °C; n=1.14
T1 sequence (G5DSS1 31-328): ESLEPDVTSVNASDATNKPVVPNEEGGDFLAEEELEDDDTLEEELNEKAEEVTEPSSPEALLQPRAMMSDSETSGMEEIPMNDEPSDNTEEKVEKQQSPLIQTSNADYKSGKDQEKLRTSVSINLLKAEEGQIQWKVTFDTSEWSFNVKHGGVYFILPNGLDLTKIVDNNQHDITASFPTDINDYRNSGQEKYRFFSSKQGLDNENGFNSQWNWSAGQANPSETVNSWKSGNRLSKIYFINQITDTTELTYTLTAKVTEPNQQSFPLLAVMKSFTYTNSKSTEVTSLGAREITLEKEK

[2] = molecular target: T2, type PN SadP(125-329) (Streptococcus suis, UniProt G5DSS1); experiment: biochemical
T2 sequence (G5DSS1 125-329): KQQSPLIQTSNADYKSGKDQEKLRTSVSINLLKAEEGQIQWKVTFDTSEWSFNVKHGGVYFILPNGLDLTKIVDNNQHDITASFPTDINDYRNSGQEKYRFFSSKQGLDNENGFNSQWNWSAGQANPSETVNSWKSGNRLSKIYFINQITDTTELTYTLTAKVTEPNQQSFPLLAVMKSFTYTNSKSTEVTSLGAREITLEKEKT

[3] = molecular target: type PO SadP-6407(31-328); conditions: PBS, 25 °C
[4] = molecular target: type PN SadP(125-329) (Streptococcus suis, UniProt G5DSS1, N271D); experiment: biochemical

SMILES	Kd [1] [µM]	Kd [2] [µM]	Kd ([3]; n=0.13, poorly defined fit) [µM]	Kd [4] [µM]	Kd ([3]; n=0.85) [µM]
CC(=O)N[C@H]1[C@H](O[C@H]2[C@@H](O)[C@@H](CO)O[C@H](O[C@@H]3[C@H](O)[C@@H](O)[C@H](OCC[Si](C)(C)C)O[C@@H]3CO)[C@@H]2O)O[C@H](CO)[C@H](O)[C@@H]1O [GalNAcβ1–3Galα1–4Gal TMSEt glycoside]	33.7 ± 3.5	36 ± 4.8	940 ± 680	–	–
C[Si](C)(C)CCO[C@@H]1O[C@H](CO)[C@H](O[C@H]2O[C@H](CO)[C@H](O)[C@H](O)[C@H]2O)[C@H](O)[C@H]1O [Galα1–4Gal TMSEt glycoside]	–	–	–	22.7 ± 7.2	3.5 ± 1.6

— article doi:10.1101/2020.05.29.122762v3 (biorxiv, 2020)
